This is an account of results in ChEMBL document CHEMBL3991950, “Imidazolidinedione derivatives” (2011).

Series [1] concerns the target T1, Voltage-gated potassium channel KCNC2 (Homo sapiens) (UniProt Q96PR1).
T1 sequence (whole entry): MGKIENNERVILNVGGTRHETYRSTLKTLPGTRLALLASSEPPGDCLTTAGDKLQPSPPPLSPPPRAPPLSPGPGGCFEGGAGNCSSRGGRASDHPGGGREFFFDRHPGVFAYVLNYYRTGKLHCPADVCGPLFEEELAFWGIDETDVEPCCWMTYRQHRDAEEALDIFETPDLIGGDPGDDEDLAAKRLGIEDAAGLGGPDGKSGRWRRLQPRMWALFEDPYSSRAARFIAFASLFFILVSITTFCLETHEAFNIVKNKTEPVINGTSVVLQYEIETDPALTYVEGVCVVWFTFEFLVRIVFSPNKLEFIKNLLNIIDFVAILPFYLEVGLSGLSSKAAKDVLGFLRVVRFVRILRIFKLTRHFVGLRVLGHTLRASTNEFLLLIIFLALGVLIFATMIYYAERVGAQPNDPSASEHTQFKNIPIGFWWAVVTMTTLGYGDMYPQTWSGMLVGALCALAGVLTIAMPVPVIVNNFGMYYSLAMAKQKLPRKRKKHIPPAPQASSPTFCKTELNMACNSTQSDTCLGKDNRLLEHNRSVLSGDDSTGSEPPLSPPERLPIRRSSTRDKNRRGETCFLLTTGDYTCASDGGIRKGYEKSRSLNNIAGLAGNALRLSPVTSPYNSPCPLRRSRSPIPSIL
The experiment in a line: Positive modulation activity at human recombinant Kv3.2 expressed in CHOK1 cells assessed as effect on activation time at -70 mV holding potential incubated for 3 mins by lonWorks Quattro system based electrophysiology assay (reference value: 7.1 ms). The series is classed as cell-based.

Series [2] has as its target T1, Voltage-gated potassium channel KCNC2 (Homo sapiens). Put plainly: Modulation activity at human recombinant Kv3.2 expressed in CHOK1 cells assessed as potentiation of whole-cell currents by measuring activation time at 3.1 uM at -70 mV holding potential incubated for 3 mins by lonWorks Quattro system based electrophysiology assay (reference value: 7.1 ms).
Series [3] deals with Callithrix jacchus. Put plainly: Antipsychotic-like activity in common marmoset assessed as induction of increase in absolute power in delta band at 1 mg/kg, po measured at 30 mins by electroencephalography analysis. The series is classed as functional, organism-based.
Series [4] relates to Callithrix jacchus. The experiment in a line: Antipsychotic-like activity in common marmoset assessed as induction of reduction in power in beta band at 1 mg/kg, po measured at 30 mins by electroencephalography analysis. Type of series: functional, organism-based.
For series [5], the target named is T1, Voltage-gated potassium channel KCNC2 (Homo sapiens). Put plainly: Modulation activity at human recombinant Kv3.2 expressed in CHOK1 cells assessed as potentiation of whole-cell currents by measuring activation time at 12.5 uM at -70 mV holding potential incubated for 3 mins by lonWorks Quattro system based electrophysiology assay (reference value: 7.1 ms).

The subject of series [6] is Callithrix jacchus. The experiment in a line: Antipsychotic-like activity in common marmoset assessed as induction of increase in theta band power at 3 mg/kg, po measured at 60 mins by electroencephalography analysis. The series is classed as functional, organism-based.
Series [7] relates to Callithrix jacchus. Put plainly: Effect on absolute power in alpha band in common marmoset at 0.3 to 3 mg/kg, po by electroencephalography analysis. Type of series: ADME, organism-based. The following applies: in vivo.
Series [8] relates to Callithrix jacchus. The experiment in a line: Antipsychotic-like activity in common marmoset assessed as induction of increase in absolute power in delta band at 3 mg/kg, po measured between 30 and 120 mins by electroencephalography analysis. Type of series: functional, organism-based.
For series [9], the target named is T1, Voltage-gated potassium channel KCNC2 (Homo sapiens). The experiment in a line: Negative modulation activity at human recombinant Kv3.2 expressed in CHOK1 cells assessed as effect on activation time at -70 mV holding potential incubated for 3 mins by lonWorks Quattro system based electrophysiology assay. Type of series: cell-based.
The target is the same in series [10]. The experiment in a line: Modulation activity at human recombinant Kv3.2 expressed in CHOK1 cells assessed as potentiation of whole-cell currents by measuring activation time at 0.4 uM at -70 mV holding potential incubated for 3 mins by lonWorks Quattro system based electrophysiology assay (reference value: 7.1 ms).
Series [11] relates to Mus musculus. Put plainly: Reduction in amphetamine-induced hyperactivity in CD1 mouse assessed as amphetamine-induced increase in total distance travelled at 3 mg/kg, ip pretreated with compound 30 mins before amphetamine challenge and measured over 60 mins post amphetamine challenge (reference value: 16304 +/- 3309 cm). Type of series: functional.
The subject of series [12] is Mus musculus. Put plainly: Reduction in amphetamine-induced hyperactivity in CD1 mouse assessed as reduction in amphetamine-induced increase in total distance travelled at 3 mg/kg, ip pretreated with compound 30 mins before amphetamine challenge and measured over 60 mins post amphetamine challenge. The series is classed as functional, organism-based.
Series [13] concerns Rattus norvegicus. The experiment in a line: Increase in threshold for tonic hindlimb extensor seizures in CD rat model of electroshock seizure at 300 mg/kg, po relative to untreated control. Type of series: functional.
The target in series [14] is T1, Voltage-gated potassium channel KCNC2 (Homo sapiens). The experiment in a line: Modulation activity at human recombinant Kv3.2 expressed in CHOK1 cells assessed as potentiation of whole-cell currents by measuring activation time at 0.2 uM at -70 mV holding potential incubated for 3 mins by lonWorks Quattro system based electrophysiology assay.
The subject of series [15] is Rattus norvegicus. Put plainly: Increase in threshold for tonic hindlimb extensor seizures in CD rat model of electroshock seizure at 30 mg/kg, po relative to untreated control. Type of series: functional.
In series [16] the test system is Callithrix jacchus. Put plainly: Effect on animal postures in marmoset at 1 and 3 mg/kg, po dosed 2 hrs before test and measured over 2 mins post dose. The following applies: in vivo. Type of series: ADME, organism-based.
The target in series [17] is T1, Voltage-gated potassium channel KCNC2 (Homo sapiens). Put plainly: Modulation activity at human recombinant Kv3.2 expressed in CHOK1 cells assessed as potentiation of whole-cell currents by measuring activation time at 6.25 uM at -70 mV holding potential incubated for 3 mins by lonWorks Quattro system based electrophysiology assay (reference value: 7.1 ms).
The species named for series [18] is Mus musculus. Put plainly: Modulation activity at Kv3 channel-mediated firing activity of parvalbumin-positive interneurons isolated form somatosensory cortex of transgenic [CB6-Tg (Gad1-EGFP) G42Zjh/J] mouse assessed as reduction in 0.5 mM TEA-induced action potential half-width at 1 uM incubated for 1 hr at resting potential of -80 mV by electrophysiology assay.

For series [19], the target named is T1, Voltage-gated potassium channel KCNC2 (Homo sapiens). Put plainly: Modulation activity at human recombinant Kv3.2 expressed in CHOK1 cells assessed as potentiation of whole-cell currents at 6.3 uM at -70 mV holding potential incubated for 3 mins by lonWorks Quattro system based electrophysiology assay.
Series [20] deals with Rattus norvegicus. The experiment in a line: Increase in threshold for tonic hindlimb extensor seizures in CD rat model of electroshock seizure at 60 mg/kg, po relative to untreated control. Type of series: functional.
Series [21] concerns the target T1, Voltage-gated potassium channel KCNC2 (Homo sapiens). The experiment in a line: Modulation activity at human recombinant Kv3.2 expressed in CHOK1 cells assessed as potentiation of whole-cell currents at 25 uM at -70 mV holding potential incubated for 3 mins by lonWorks Quattro system based electrophysiology assay.
Series [22] deals with Mus musculus. Put plainly: Reduction in amphetamine-induced hyperactivity in CD1 mouse assessed as reduction in amphetamine-induced increase in total distance travelled at 30 mg/kg, po pretreated with compound 30 mins before amphetamine challenge and measured over 60 mins post amphetamine challenge. Type of series: functional, organism-based.
Series [23] relates to Mus musculus. Put plainly: Reduction in amphetamine-induced hyperactivity in CD1 mouse assessed as reduction in amphetamine-induced increase in total distance travelled at 60 mg/kg, po pretreated with compound 30 mins before amphetamine challenge and measured over 60 mins post amphetamine challenge. The series is classed as functional, organism-based.
For series [24], the species on record is Mus musculus. The experiment in a line: Modulation activity at Kv3 channel-mediated firing activity of parvalbumin-positive interneurons isolated form somatosensory cortex of transgenic [CB6-Tg (Gad1-EGFP) G42Zjh/J] mouse assessed as reduction in 0.5 mM TEA-induced action potential half-width at 10 uM incubated for 1 hr at resting potential of -80 mV by electrophysiology assay.

Series [25] relates to Callithrix jacchus. The experiment in a line: Sedative or hypnotic effect in marmoset assessed as reduction in number of animal jumps at 1 and 3 mg/kg, po dosed 2 hrs before test and measured over 2 mins post dose. Type of series: functional, organism-based.
In series [26] the test system is Mus musculus. The experiment in a line: Reduction in amphetamine-induced hyperactivity in CD1 mouse assessed as amphetamine-induced increase in total distance travelled at 10 mg/kg, po pretreated with compound 30 mins before amphetamine challenge and measured over 60 mins post amphetamine challenge (reference value: 16304 +/- 3309 cm). Type of series: functional.

In series [27] the target is T2, Voltage-gated potassium channel KCNC1 (Mus musculus) (UniProt P15388).
T2 sequence (whole entry): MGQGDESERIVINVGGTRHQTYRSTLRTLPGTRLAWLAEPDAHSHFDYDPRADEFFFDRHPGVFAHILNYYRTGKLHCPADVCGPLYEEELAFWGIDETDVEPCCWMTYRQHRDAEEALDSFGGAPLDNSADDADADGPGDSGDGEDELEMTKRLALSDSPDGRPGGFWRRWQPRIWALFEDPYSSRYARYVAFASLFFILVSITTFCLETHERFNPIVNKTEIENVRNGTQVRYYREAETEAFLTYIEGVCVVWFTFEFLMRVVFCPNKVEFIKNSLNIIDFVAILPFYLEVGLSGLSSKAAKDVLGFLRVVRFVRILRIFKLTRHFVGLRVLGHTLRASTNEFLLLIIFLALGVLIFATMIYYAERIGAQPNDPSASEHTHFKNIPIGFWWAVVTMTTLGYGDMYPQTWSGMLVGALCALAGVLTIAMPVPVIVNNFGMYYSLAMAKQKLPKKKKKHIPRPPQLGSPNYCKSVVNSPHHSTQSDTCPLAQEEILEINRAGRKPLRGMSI
The experiment in a line: Modulation activity at Kv3.1 channel-mediated potassium currents in neurons isolated from medial nucleus of trapezoid body in CBA/Ca mouse assessed as reversal of TEA-induced reduction in voltage steps to +40 mV-evoked amplitude of outward high voltage-activated potassium currents at 10 uM at resting potential of -60 mV incubated for 5 mins by electrophysiology assay.

Series [28] deals with T1, Voltage-gated potassium channel KCNC2 (Homo sapiens). The experiment in a line: Modulation activity at human recombinant Kv3.2 expressed in CHOK1 cells assessed as potentiation of whole-cell currents by measuring activation time at 0.8 uM at -70 mV holding potential incubated for 3 mins by lonWorks Quattro system based electrophysiology assay (reference value: 7.1 ms).

Activity calls are given as the source filed them.

On to `CC[C@H]1NC(=O)N(c2ccc(Oc3ccc(C#N)c(C4CC4)c3)nc2)C1=O`, for which the outcome in [1] was Active. For the same compound, the TIME in [2] amounted to 2.11e-06 h.
On to `CC[C@H]1NC(=O)N(c2ccc(Oc3ccc(C#N)c(OC(C)C)c3)nc2)C1=O`, for which, in series [2], the TIME stood at 2.69e-06 h.
As to `CC[C@H]1NC(=O)N(c2ccc(Oc3ccc(C#N)cc3C3CC3)nc2)C1=O`, the result in series [1] was Active. For the same compound, the TIME in series [2] was found to be 3.61e-06 h.
As for `CC[C@@]1(C)NC(=O)N(c2ccc(Oc3ccc(C)c(OC)c3)nc2)C1=O`, the result (in the series on Callithrix jacchus [3]; in series [1]; in the series on Callithrix jacchus [4]; in the series on Callithrix jacchus [6]; in the series on Callithrix jacchus [8]) was Active. Further, the TIME in [5] turned out to be 2.03e-06 h. Also, in the series with Callithrix jacchus [7], the Activity entry was “Non-Toxic”.
As a reminder, the inhibition is the relative decrease from the control value, in per cent. Regarding `CC1(C)NC(=O)N(c2ccc(Oc3cccc4c3C3(CC3)CO4)nc2)C1=O`, the inhibition result in [9] is “Active”. Further, in series [10], the TIME was found to be 5.36e-06 h.
`CN1CCN(C2=Nc3cc(Cl)ccc3Nc3ccccc32)CC1` [CLOZAPINE]: the Activity in the series with Mus musculus [11] turned out to be 932 cm. For the same compound, the result with Mus musculus [12] was Active.
In the case of `CCCC(CCC)C(=O)[O-].[Na+]` [VALPROATE SODIUM], the Activity in the series on Rattus norvegicus [13] was found to be 258%.
As to `CC[C@H]1NC(=O)N(c2ccc(Oc3ccc(C#N)cc3C(C)(C)C)nc2)C1=O`, the TIME in [14] was determined as 6.39e-06 h. Further, in series [9], the inhibition entry is “Active”.
For `CCc1cc(Oc2ccc(N3C(=O)N[C@H](CC)C3=O)cn2)ccc1C#N`, the TIME in series [2] was found to be 2.28e-06 h.
For the compound `CC[C@H]1NC(=O)N(c2ccc(Oc3ccc(C)c(OC)c3)nc2)C1=O`, the result (in [1]; in series [19]; in [21]; with Mus musculus [22]; in the series with Mus musculus [23]; in the series with Callithrix jacchus [25]) was Active. For the same compound, the outcome in series [27] was Active. In addition, the Activity is 91% in the series on Rattus norvegicus [15], “Non-Toxic” in the series with Callithrix jacchus [16], 218% in the series with Rattus norvegicus [20] and 15267 cm in the series with Mus musculus [26]. In addition, in series [17], the TIME amounted to 2.75e-06 h. The inhibition in the series listed under Mus musculus [18] turned out to be 24%; in the series filed under Mus musculus [24], 36%.
Consider `CC[C@H]1NC(=O)N(c2ccc(Oc3ccc(C#N)c(OC(F)(F)F)c3)nc2)C1=O`, for which the TIME in [2] came to 2.89e-06 h.
For the compound `CC[C@H]1NC(=O)N(c2ccc(Oc3ccc(C#N)c(C(C)C)c3)nc2)C1=O`, the result in series [1] was Active. The TIME in series [28] was determined as 2.56e-06 h.
